Assay results as given in patent publication US20060100431A1, “Biologically active compounds” (Amura Therapeutics Limited, priority 2002, published 2006).

Target: Wild-type cruzipain (Trypanosoma cruzi, UniProt P25779)
Test: Trypanosoma cruzi cruzipain peptidase activity assay (Ki)
Format: biochemical
Settings: read-out: Ki, inhibitors of cruzain and cruzipains
Method: Unless otherwise stated, all general chemicals and biochemicals were purchased from either the Sigma Chemical Company, Poole, Dorset, U.K or from Fisher Scientific UK, Loughborough, Leicestershire, U.K. Absorbance assays were carried out in flat-bottomed 96-well plates (Spectra; Greiner Bio-One Ltd., Stonehouse, Gloucestershire, U.K.) using a SpectraMax PLUS384 plate reader (Molecular Devices, Crawley, U.K.). Fluorescence high throughput assays were carried out in either 384-well microtitre plates (Corning Costar 3705 plates, Fisher Scientific) or 96-well ‘U’ bottomed Microfluor W1 microtitre plates (Thermo Labsystems, Ashford, Middlesex, U.K.). Fluorescence assays were monitored using a SpectraMax Gemini fluorescence plate reader (Molecular Devices). For substrates employing either a 7-amino-4-methylcoumarin (AMC) or a 7-amino-4-trifluoromethylcoumarin (AFC) fluorophore, assays were monitored at an excitation wavelength of 365 nm and an emission wavelength of 450 nm and the fluorescence plate reader calibrated with AMC. For substrates employing a 3-amino-benzoyl (Abz) fluorophore, assays were monitored at an excitation wavelength of 310 nm and an emission wavelength of 445 nm; the fluorescence plate reader calibrated with 3-amino-benzamide (Fluka). Unless otherwise indicated, all the peptidase substrates were purchased from Bachem UK, St Helens, Merseyside, UK. Substrates utilizing fluorescence resonance energy transfer methodology (i.e. FRET-based substrates) were synthesized at Incenta Limited using published methods (Atherton & Sheppard, Solid Phase Peptide Synthesis, IRL Press, Oxford, U.K, 1989) and employed Abz (2-aminobenzoyl) as the fluorescence donor and 3-nitro-tyrosine [Tyr(NO2)] as the fluorescence quencher (Meldal, M. and Breddam, K., Anal. Biochem, 195, 141-147, 1991). Hydroxyethylpiperazine ethanesulfonate (HEPES), tris-hydroxylmethyl aminomethane (tris) base, bis-tris-propane and all the biological detergents (e.g. CHAPS, zwittergents, etc.) were purchased from CN Biosciences UK, Beeston, Nottinghamshire, U.K. Glycerol was purchased from Amersham Pharmacia Biotech, Little Chalfont, Buckinghamshire, U.K. Stock solutions of substrate or inhibitor were made up to 10 mM in 100% dimethylsulfoxide (DMSO) (Rathburns, Glasgow, U.K.) and diluted as appropriately required. In all cases the DMSO concentration in the assays was maintained at less than 1% (vol./vol.).
Assay protocols were based on literature precedent (Table 4; Barrett, A. J., Rawlings, N. D. and Woessner, J. F., 1998, Handbook of Proteolytic Enzymes, Academic Press, London and references therein) and modified as required to suit local assay protocols. Enzyme was added as required to initiate the reaction and the activity, as judged by the change in fluorescence upon conversion of substrate to product, was monitored over time. All assays were carried out at 25±1° C.
Wild-type cruzipain, derived from Trypanosoma cruzi Dm28 epimastigotes, was obtained from Dr. Julio Scharfstein (Instituto de Biofisica Carlos Chagas Filho, Universidade Federal do Rio de Janeiro, Rio de Janeiro, Brazil). Activity assays were carried out in 100 mM sodium phosphate, pH 6.75 containing 1 mM EDTA and 10 mM L-cysteine using 2.5 nM enzyme. […] The rate of conversion of substrate to product was derived from the slope of the increase in fluorescence monitored continuously over time.
The apparent inhibition constant (Ki) for each compound was determined on the basis that inhibition was reversible and occurred by a pure-competitive mechanism. The Ki values were calculated, from the dependence of enzyme activity as a function of inhibitor concentration, by direct regression analysis (Prism v 3.02) using Equation 2 (Cornish-Bowden, A., 1995.). [formula]

Chain of Wild-type cruzipain (P25779 whole entry): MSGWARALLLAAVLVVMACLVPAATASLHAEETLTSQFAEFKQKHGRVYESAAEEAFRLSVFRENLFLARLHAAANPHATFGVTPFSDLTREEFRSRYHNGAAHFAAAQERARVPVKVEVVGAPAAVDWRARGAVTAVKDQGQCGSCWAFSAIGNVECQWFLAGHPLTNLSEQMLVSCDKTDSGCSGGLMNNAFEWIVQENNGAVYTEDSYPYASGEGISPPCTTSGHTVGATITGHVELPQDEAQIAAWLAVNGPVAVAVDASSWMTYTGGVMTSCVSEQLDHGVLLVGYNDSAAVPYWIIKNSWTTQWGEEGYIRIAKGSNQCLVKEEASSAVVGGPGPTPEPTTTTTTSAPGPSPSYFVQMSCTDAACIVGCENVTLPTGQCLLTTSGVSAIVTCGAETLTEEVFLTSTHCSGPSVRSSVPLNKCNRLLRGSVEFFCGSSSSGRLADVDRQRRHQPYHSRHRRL

Compound | Ki
CC(C)C[C@H](NC(=O)c1ccc(C(C)(C)C)cc1)C(=O)N1CC[C@@H]2[C@H]1C(=O)CN2C(=O)c1ccccn1 [Example 4, (3aR,6aS)-4-tert-Butyl-N-{(1S)-3-methyl-1-[6-oxo-4-(pyridine-2-carbonyl)-hexahydro-pyrrolo[3,2-b]pyrrole-1-carbonyl]-butyl}-benzamide] | < 5 µM
CC(C)(C)c1ccc(C(=O)N[C@@H](Cc2cccs2)C(=O)N2CC[C@@H]3[C@H]2C(=O)CN3C(=O)c2ccccc2)cc1 [Example 22, (3aR,6aS)-N-[(1S)-2-(4-Benzoyl-6-oxo-hexahydro-pyrrolo[3,2-b]pyrrol-1-yl)-2-oxo-1-thiophen-2-ylmethyl-ethyl]-4-tert-butyl-benzamide] | < 5 µM
CC(C)(C)c1ccc(C(=O)N[C@@H](Cc2cccs2)C(=O)N2CC[C@@H]3[C@H]2C(=O)CN3C(=O)c2cccnc2)cc1 [Example 23, (3aR,6aS)-4-tert-Butyl-N-{(1S)-2-oxo-2-[6-oxo-4-(pyridine-3-carbonyl)-hexahydro-pyrrolo[3,2-b]pyrrole-1-yl]-1-thiophen-2-ylmethyl-ethyl}-benzamide] | < 5 µM
CC(C)C[C@H](NC(=O)c1ccc(C(C)(C)C)cc1)C(=O)N1CC[C@@H]2[C@H]1C(=O)CN2C(=O)c1ccc2c(c1)OCCO2 [Example 30, (3aR,6aS)-4-tert-Butyl-N-{(1S)-1-[4-(2,3-dihydro-benzo[1,4]dioxine-6-carbonyl)-6-oxo-hexahydro-pyrrolo[3,2-b]pyrrole-1-carbonyl]-3-methyl-butyl}-benzamide] | < 5 µM
CC(C)C[C@H](NC(=O)c1ccc(C(C)(C)C)cc1)C(=O)N1CC[C@@H]2[C@H]1C(=O)CN2C(=O)c1cccc2ccccc12 [Example 33, (3aR,6aS)-tert-Butyl-N-{(1)-3-methyl-1-[4-(naphthalene-1-carbonyl)-6-oxo-hexahydro-pyrrolo[3,2-b]pyrrole-1-carbonyl-]-butyl}-benzamide] | < 5 µM
CC(C)C[C@H](NC(=O)c1ccc(C(C)(C)C)cc1)C(=O)N1CC[C@@H]2[C@H]1C(=O)CN2C(=O)c1ccccc1Cc1ccccc1 [Example 36, (3aR,6aS)-N-{(1S)-1-[4-(2-Benzyl-benzoyl)-6-oxo-hexahydro-pyrrolo[3,2-b]pyrrole-1-carbonyl]-3-methyl-butyl}-4-tert-butyl-benzamide] | < 5 µM
CC(C)C[C@H](NC(=O)c1ccc(N(C)C)cc1)C(=O)N1CC[C@@H]2[C@H]1C(=O)CN2C(=O)c1ccc(O)cc1 [Example 49, (3aR,6aS)-4-Dimethylamino-N-{(1S)-1-[4-(4-hydroxy-benzoyl)-6-oxo-hexahydro-pyrrolo[3,2-b]pyrrole-1-carbonyl]-3-methyl-butyl}-benzamide] | < 5 µM
CC(C)C[C@H](NC(=O)c1ccc(N(C)C)cc1)C(=O)N1CC[C@@H]2[C@H]1C(=O)CN2C(=O)c1ccc(S(C)(=O)=O)s1 [Example 51, (3aR,6aS)-4-Dimethylamino-N-{(1S)-1-[4-(5-methanesulfonyl-thiophene-2-carbonyl)-6-oxo-hexahydro-pyrrolo[3,2-b]pyrrole-1-carbonyl]-3-methyl-butyl}-benzamide] | < 5 µM
Cc1ccccc1C(=O)N1CC(=O)[C@@H]2[C@H]1CCN2C(=O)[C@H](CC(C)C)NC(=O)c1ccc(N(C)C)cc1 [Example 53, (3aR,6aS)-4-Dimethylamino-N-{(1S)-3-methyl-1-[4-(2-methyl-benzoyl)-6-oxo-hexahydro-pyrrolo[3,2-b]pyrrole-1-carbonyl]-butyl}-benzamide] | < 5 µM
Cc1ccc(C(=O)N2CC(=O)[C@@H]3[C@H]2CCN3C(=O)[C@H](CC(C)C)NC(=O)c2ccc(N(C)C)cc2)cc1 [Example 55, (3aR,6aS)-4-Dimethylamino-N-{(1S)-3-methyl-1-[4-(4-methyl-benzoyl)-6-oxo-hexahydro-pyrrolo[3,2-b]pyrrole-1-carbonyl]-butyl}-benzamide] | < 5 µM
CC(C)C[C@H](NC(=O)c1ccc(N(C)C)cc1)C(=O)N1CC[C@@H]2[C@H]1C(=O)CN2C(=O)c1ccccn1 [Example 79, (3aR,6aS)-4-Dimethylamino-N-{(1S)-3-methyl-1-[6-oxo-4-(pyridine-2-carbonyl)-hexahydro-pyrrolo[3,2-b]pyrrole-1-carbonyl]-butyl}-benzamide] | < 5 µM
CC(C)C[C@H](NC(=O)c1ccc(N(C)C)cc1)C(=O)N1CC[C@@H]2[C@H]1C(=O)CN2C(=O)c1cccc[n+]1[O-] [Example 80] | < 5 µM
CC(C)C[C@H](NC(=O)c1ccc(N(C)C)cc1)C(=O)N1CC[C@@H]2[C@H]1C(=O)CN2C(=O)c1ccc[n+]([O-])c1 [Example 81, (3aR,6aS)-4-Dimethylamino-N-{(1S)-3-methyl-1-[6-oxo-4-(1-oxy-pyridine-3-carbonyl)-hexahydro-pyrrolo[3,2-b]pyrrole-1-carbonyl]-butyl}-benzamide] | < 5 µM
CC(C)C[C@H](NC(=O)c1ccc(N(C)C)cc1)C(=O)N1CC[C@@H]2[C@H]1C(=O)CN2C(=O)c1ccc(N2CCOCC2)nc1 [Example 94, (3aR,6aS)-4-Dimethylamino-N-{(1S)-3-methyl-1-[4-(6-morpholin-4-yl-pyridine-3-carbonyl)-6-oxo-hexahydro-pyrrolo[3,2-b]pyrrole-1-carbonyl]-butyl}-benzamide] | < 5 µM
CC(C)C[C@H](NC(=O)c1ccc(N(C)C)cc1)C(=O)N1CC[C@@H]2[C@H]1C(=O)CN2C(=O)C1CCC1 [Example 133, (3aR,6aS)-N-[(1S)-1-(4-Cyclobutanecarbonyl-6-oxo-hexahydro-pyrrolo[3,2-b]pyrrole-1-carbonyl)-3-methyl-butyl]-4-dimethylamino-benzamide] | < 5 µM
CC(C)C[C@H](NC(=O)c1ccc(N(C)C)cc1)C(=O)N1CC[C@@H]2[C@H]1C(=O)CN2C(=O)C1CCCNC1 (stereo partly drawn) [Example 140, (3aR,6aS)-4-Dimethylamino-N-{(1S)-3-methyl-1-[6-oxo-4-(piperidine-3-carbonyl)-hexahydro-pyrrolo[3,2-b]pyrrole-1-carbonyl]-butyl}-benzamide] | < 5 µM
CC(C)C[C@H](NC(=O)c1ccc(N(C)C)cc1)C(=O)N1CC[C@@H]2[C@H]1C(=O)CN2C(=O)[C@@H]1CCCN1 [Example 156, (3aR,6aS)-4-Dimethylamino-N-{(1S)-3-methyl-1-[6-oxo-4-((2S)-pyrrolidine-2-carbonyl)-hexahydro-pyrrolo[3,2-b]pyrrole-1-carbonyl]-butyl}-benzamide] | < 5 µM
CC(C)C[C@H](NC(=O)c1ccc(N(C)C)cc1)C(=O)N1CC[C@@H]2[C@H]1C(=O)CN2C(=O)[C@H]1CCCN1 [Example 157, (3aR,6aS)-4-Dimethylamino-N-{(1S)-3-methyl-1-[6-oxo-4-((2R)-pyrrolidine-2-carbonyl)-hexahydro-pyrrolo[3,2-b]pyrrole-1-carbonyl]-butyl}-benzamide] | < 5 µM
CC(C)C[C@H](NC(=O)c1ccc(N(C)C)cc1)C(=O)N1CC[C@@H]2[C@H]1C(=O)CN2C(=O)[C@H](C)N [Example 162, (3aR,6aS)-N-{(1S)-1-[4-((2S)-2-Amino-propionyl)-6-oxo-hexahydro-pyrrolo[3,2-b]pyrrole-1-carbonyl]-3-methyl-butyl}-4-dimethylamino-benzamide] | < 5 µM
CC(C)C[C@H](NC(=O)c1ccc(N(C)C)cc1)C(=O)N1CC[C@@H]2[C@H]1C(=O)CN2C(=O)c1ccccc1OC(F)(F)F [Example 168, (3aR,6aS)-4-Dimethylamino-N-{(1S)-3-methyl-1-[6-oxo-4-(2-trifluoromethoxy-benzoyl)-hexahydro-pyrrolo[3,2-b]pyrrole-1-carbonyl]-butyl}-benzamide] | < 5 µM
